Data reported in patent US8871681B2, “Herbicidal compositions comprising 4-amino-3-chloro-5-fluoro-6-(4-chloro-2-fluoro-3-methoxyphenyl) pyridine-2-carboxylic acid or a derivative thereof and certain sulfonylureas” (Dow AgroSciences LLC, priority 2012, dated 2014).

Experiments:
[1] = test system: BRAPP (Brachiaria platyphylla, broadleaf signalgrass); experiment: Postemergence foliar-applied weed control, direct seeded rice, greenhouse (Example I); format: in vivo, Brachiaria platyphylla (Griseb.) Nash; conditions: Urochloa platyphylla, post-emergence, read-out: Visual Weed Control (%) Obs
How it was run: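 Greenhouse-grown plants in loam/sandy loam–grit soil (14 h photoperiod, ~29/26 °C) were sprayed postemergence at the first to fourth true leaf stage. Compound A (acid equivalent basis) and ALS-inhibiting sulfonylureas (active ingredient basis) were applied alone and in combination in 1.25% (v/v) crop oil concentrate at 187 L/ha by track sprayer; controls received solvent blank.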

[2] = test system: ISCRU (Ischaemum rugosum, saramollagrass); experiment: as above; format: in vivo, Ischaemum rugosum Salisb.; conditions: 21 DAA
Description: (§1) Seeds or nutlets of the desired test plant species were planted in a soil matrix prepared by mixing a loam or sandy loam soil (e.g., 28.6 percent silt, 18.8 percent clay, and 52.6 percent sand, with a pH of about 5.8 and an organic matter content of about 1.8 percent) and calcareous grit in an 80 to 20 ratio. The soil matrix was contained in plastic pots with a volume of 1 quart and a surface area of 83.6 square centimeters (cm^2). When required to ensure good germination and healthy plants, a fungicide treatment and/or other chemical or physical treatment was applied. The plants were grown for 8-22 days in a greenhouse with an approximate 14 h photoperiod which was maintained at about 29° C. during the day and 26° C. during the night. Nutrients (Peters Excel® 15-5-15 5-Ca 2-Mg and iron chelate) were applied in the irrigation solution as needed and water was added on a regular basis. Supplemental lighting was provided with overhead metal halide 1000-Watt lamps as necessary. The plants were employed for testing when they reached the first through fourth true leaf stage.
(§2) Treatments consisted of the acid or esters of 4-amino-3-chloro-5-fluoro-6-(4-chloro-2-fluoro-3-methoxy-phenyl)pyridine-2-carboxylic acid (Compound A), each formulated as an SC, and various herbicidal components alone and in combination. Forms of compound A were applied on an acid equivalent basis.
(§3) Other herbicidal components were applied on an active ingredient basis and included acetolactate synthase (ALS)-inhibiting herbicides (sulfonylurea chemical class) azimsulfuron formulated as Gulliver®, bensulfuron-methyl formulated as Londax® 60DF, cyclosulfamuron (technical material), ethoxysulfuron formulated as Sunrice® 15 WDG, flazasulfuron formulated as Katana®, flucetosulfuron formulated as Sukedachi® 1KG G, foramsulfuron formulated as Option®, imazosulfuron formulated as Brazzos® WG, iodosulfuron-methyl-sodium formulated as Hussar®, metsulfuron-methyl formulated as Lorate®, nicosulfuron formulated as Accent®, orthosulfamuron formulated as Strada® WG, primisulfuron-methyl (technical material), propyrisulfuron formulated as Zeta One®, rimsulfuron formulated as Matrix® WG, sulfometuron-methyl formulated as Oust®, and trifloxysulfuron-sodium formulated as Monument® 75WG.
(§4) Treatment requirements were calculated based upon the rates being tested, the concentration of active ingredient or acid equivalent in the formulation, and a 12 mL application volume at a rate of 187 L/ha.
(§5) For treatments comprised of formulated compounds, measured amounts of compounds were placed individually in 25 mL glass vials and diluted in a volume of 1.25% (v/v) Agri-Dex® crop oil concentrated to obtain 12× stock solutions. […] Application solutions were prepared by adding an appropriate amount of each stock solution (e.g., 1 mL) and diluted to the appropriate final concentrations with the addition of 10 mL of an aqueous mixture of 1.25% (v/v) crop oil concentrate so that the final spray solutions contained 1.25+/−0.05% (v/v) Agrcrop oil concentrate.
(§6) For treatments comprised of formulated and technical compounds, weighed amounts of the technical materials were placed individually in 25 mL glass vials and dissolved in a volume of 97:3 v/v acetone/DMSO to obtain 12× stock solutions, and measured amounts of the formulated compounds were placed individually in 25 mL glass vials and diluted in a volume of 1.25% (v/v) crop oil concentrate to obtain 12× stock solutions. […] Application solutions were prepared by adding an appropriate amount of each stock solution (e.g., 1 mL) and diluted to the appropriate final concentrations with the addition of an appropriate amount of an aqueous mixture of 1.5% (v/v) crop oil concentrate so that the final spray solutions contained 1.25% (v/v) crop oil concentrate. […]

[3] = test system: CYPIR (Cyperus iria, rice flatsedge); experiment: as above; format: in vivo, Cyperus iria L.; conditions: 22 DAA
Description: as §1, §2, §3, §4, §5, §6

[4] = test system: ECHOR (Echinochloa oryzoides, early watergrass); experiment: In-water applied weed control, transplanted paddy rice, greenhouse (Example II); format: in vivo, Echinochloa oryzoides (Ard.) Fritsch
How it was run: (§7)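 Transplanted rice and weeds at first to fourth true leaf stage in flooded mud pots (2.5–3 cm water), greenhouse ~29/26 °C day/night. Herbicides alone or mixed, in 1.25% crop oil concentrate (acetone for technical material), injected into the flood; visual 0–100% injury after ~3 weeks, expected mixture effects by Colby.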

[5] = test system: LEFCH (Leptochloa chinensis, Chinese sprangletop); experiment: as above; format: in vivo, Leptochloa chinensis (L.) Nees
Experimental: (§8) Weed seeds or nutlets of the desired test plant species were planted in puddled soil (mud) prepared by mixing a shredded, non-sterilized mineral soil (50.5 percent silt, 25.5 percent clay, and 24 percent sand, with a pH of about 7.6 and an organic matter content of about 2.9 percent) and water at a 1:1 volumetric ratio. The prepared mud was dispensed in 365 mL aliquots into 16-ounce (oz.) non-perforated plastic pots with a surface area of 86.59 square centimeters (cm^2) leaving a headspace of 3 centimeters (cm) in each pot. Rice seeds were planted in Sun Gro MetroMix® 306 planting mixture, which typically has a pH of 6.0 to 6.8 and an organic matter content of about 30 percent, in plastic plug trays. Seedlings at the second or third leaf stage of growth were transplanted into 860 mL of mud contained in 32-oz. non-perforated plastic pots with a surface area of 86.59 cm^2 4 days prior to herbicide application. The paddy was created by filling the headspace of the pots with 2.5 to 3 cm of water. When required to ensure good germination and healthy plants, a fungicide treatment and/or other chemical or physical treatment was applied. The plants were grown for 4-22 days in a greenhouse with an approximate 14 h photoperiod which was maintained at about 29′C during the day and 26° C. during the night. Nutrients were added as Osmocote® (19:6:12, N:P:K+minor nutrients) at 2 g per 16-oz. pot and 4 g per 32-oz. pot. Water was added on a regular basis to maintain the paddy flood, and supplemental lighting was provided with overhead metal halide 1000-Watt lamps as necessary. The plants were employed for testing when they reached the first through fourth true leaf stage.
(§9) Treatments consisted of the acid or esters of 4-amino-3-chloro-5-fluoro-6-(4-chloro-2-fluoro-3-methoxy-phenyl)pyridine-2-carboxylic acid (compound A) each formulated as an SC and various herbicidal components alone and in combination. Forms of compound A were applied on an acid equivalent basis.
(§10) Other herbicidal components were applied on an active ingredient basis and included acetolactate synthase (ALS)-inhibiting herbicides (sulfonylurea chemical class), azimsulfuron formulated as Gulliver®, bensulfuron-methyl formulated as Londax® 60DF, cyclosulfamuron (technical grade materail), ethoxysulfuron formulated as Sunrice® 15 WDG, flucetosulfuron formulated as Sukedachi® 1KG G, imazosulfuron formulated as Brazzos®, metsulfuron-methyl formulated as Lorate®, nicosulfuron formulated as Accent®, orthosulfamuron formulated as Strada® WG, propyrisulfuron formulated as Zeta One®, and rimsulfuron formulated as Matrix® WG.
(§11) Treatment requirements for each compound or herbicidal component were calculated based upon the rates being tested, the concentration of active ingredient or acid equivalent in the formulation, an application volume of 2 mL per component per pot, and an application area of 86.59 cm^2 per pot.
(§12) For formulated compounds, a measured amount was placed in an individual 100 or 200 mL glass vial and was dissolved in a volume of 1.25% (v/v) Agri-Dex® crop oil concentrate to obtain application solutions.
(§13) For technical grade compounds, a weighed amount was placed in an individual 100 to 200 mL glass vial and was dissolved in a volume of acetone to obtain concentrated stock solutions. […] The concentrated stock solutions obtained were diluted with an equivalent volume of an aqueous mixture containing 2.5% (v/v) crop oil concentrate so that the final application solutions contained 1.25% (v/v) crop oil concentrate.
(§14) Applications were made by injecting with a pipetter appropriate amounts of the application solutions, individually and sequentially, into the aqueous layer of the paddy. Control plants were treated in the same manner with the solvent blank. Applications were made so that all treated plant material received the same concentrations of acetone and crop oil concentrate. […]

[6] = test system: LEFCH (Leptochloa chinensis, Chinese sprangletop); experiment: Postemergence foliar-applied weed control, direct seeded rice, greenhouse (Example I); format: in vivo, Leptochloa chinensis (L.) Nees; conditions: Dinebra chinensis, post-emergence, 576 h, 24 DAA, read-out: Visual Weed Control (%) Obs
Description: as §1, §2, §3, §4, §5, §6

[7] = test system: DIGSA (Digitaria sanguinalis, large crabgrass); experiment: as above; format: in vivo, Digitaria sanguinalis (L.) Scop.; conditions: 24 DAA
Description: as §1, §2, §3, §4, §5, §6

[8] = test system: SCPMA (Bolboschoenus maritimus or Schoenoplectus maritimus, sea clubrush); experiment: In-water applied weed control, transplanted paddy rice, greenhouse (Example II); format: in vivo, Bolboschoenus maritimus (L.) Palla
How it was run: as §7

[9] = test system: ECHCO (Echinochloa colona, junglerice); experiment: as above; format: in vivo, Echinochloa colona (L.) Link
Experimental: as §8, §9, §10, §11, §12, §13, §14

[10] = test system: FIMMI (Fimbristylis miliacea, globe fringerush); experiment: as above; format: in vivo, Fimbristylis miliacea (L.) Vahl
Experimental: as §8, §9, §10, §11, §12, §13, §14

In the case of `CCOc1ccccc1OS(=O)(=O)NC(=O)Nc1nc(OC)cc(OC)n1` [Ethoxysulfuron, 2-ethoxyphenyl[[(4,6-dimethoxy-2-pyrimidinyl)amino]carbonyl]sulfamate, reference compound], the pest or weed control at 7.5 g/ha ([1]; 528 h, 22 DAA, 7.5 gai/ha) is reported as 0%, the pest or weed control at 15 g/ha ([1]; 528 h, 22 DAA, 15 gai/ha) is reported as 0% and the pest or weed control at 30 g/ha ([1]; 528 h, 22 DAA, 30 gai/ha) is reported as 0%. For the same compound, the “Visual Weed Control (%) Obs” value ([2]; 17.5 gai/ha) was 0%, the “Visual Weed Control (%) Obs” value ([2]; 70 gai/ha) was 0% and the “Visual Weed Control (%) Obs” value ([3]; 7.5 gai/ha) was 50%. The “Visual Weed Control (%) Obs” value ([3]; 15 gai/ha) was 50%, the “Visual Weed Control (%) Obs” value ([3]; 30 gai/ha) was 85% and the “Visual Weed Control (%) - 22 DAA ECHOR Obs” value ([4]; Table 34, 7.5 gai/ha alone) was 10%. For the same compound, the “Visual Weed Control (%) - 22 DAA ECHOR Obs” value ([4]; Table 35, 7.5 gai/ha alone) was 10%, the “Visual Weed Control (%) - 22 DAA ECHOR Obs” value ([4]; Table 35, 15 gai/ha alone) was 20% and the “Visual Weed Control (%) - 22 DAA LEFCH Obs” value ([5]; Table 34, 15 gai/ha alone) was 0%. For the same compound, the “Visual Weed Control (%) - 22 DAA LEFCH Obs” value ([5]; Table 35, 7.5 gai/ha alone) was 0% and the “Visual Weed Control (%) - 22 DAA LEFCH Obs” value ([5]; Table 35, 15 gai/ha alone) was 0%.
For `COc1cc(OC)nc(NC(=O)NS(=O)(=O)c2c(Cl)nc3ccccn23)n1` [Imazosulfuron, 2-chloro-N-[[(4,6-dimethoxy-2-pyrimidinyl)amino]carbonyl]imidazo[1,2-a]pyridine-3-sulfonamide, reference compound], the pest or weed control at 21 g/ha ([6]; 21 gai/ha) was 0%, the pest or weed control at 42 g/ha ([6]; 42 gai/ha) was 0% and the pest or weed control at 84 g/ha ([6]; 84 gai/ha) was 0%. For the same compound, the “Visual Weed Control (%) Obs” value ([7]; 21 gai/ha) was 0%, the “Visual Weed Control (%) Obs” value ([7]; 42 gai/ha) was 0% and the “Visual Weed Control (%) - 20 DAA SCPMA Obs” value ([8]; Table 38, 168 gai/ha alone) was 65%. The “Visual Weed Control (%) - 20 DAA SCPMA Obs” value ([8]; Table 39, 168 gai/ha alone) was 65%, the “Visual Weed Control (%) - 20 DAA SCPMA Obs” value ([8]; Table 40, 168 gai/ha alone) was 65% and the “Visual Weed Control (%) - 21 DAA ECHCO Obs” value ([9]; Table 38, 22.5 gai/ha alone) was 20%. The “Visual Weed Control (%) - 21 DAA ECHCO Obs” value ([9]; Table 38, 45 gai/ha alone) was 20% and the “Visual Weed Control (%) - 21 DAA ECHCO Obs” value ([9]; Table 39, 45 gai/ha alone) was 20%.
With `CCCc1ccc2nc(Cl)c(S(=O)(=O)NC(=O)Nc3nc(OC)cc(OC)n3)n2n1` [Propyrisulfuron, 2-chloro-N-[[(4,6-dimethoxy-2-pyrimidinyl)amino]carbonyl]-6-propylimidazo[1,2-b]pyridazine-3-sulfonamide, reference compound] the pest or weed control at 11.25 g/ha ([1]; 504 h, 21 DAA, 11.25 gai/ha) was 0%, the pest or weed control at 22.5 g/ha ([1]; 504 h, 21 DAA, 22.5 gai/ha) was 20% and the pest or weed control at 45 g/ha ([1]; 504 h, 21 DAA, 45 gai/ha) was 10%. For the same compound, the “Visual Weed Control (%) - 21 DAA SCPMA Obs” value ([8]; Table 48, 11.25 gai/ha alone) was 80%, the “Visual Weed Control (%) - 21 DAA LEFCH Obs” value ([5]; Table 47, 22.5 gai/ha alone) was 0% and the “Visual Weed Control (%) - 21 DAA LEFCH Obs” value ([5]; Table 47, 45 gai/ha alone) was 0%. The “Visual Weed Control (%) - 21 DAA FIMMI Obs” value ([10]; Table 48, 11.25 gai/ha alone) was 85%, the “Visual Weed Control (%) - 21 DAA FIMMI Obs” value ([10]; Table 48, 22.5 gai/ha alone) was 88% and the “Visual Weed Control (%) - 21 DAA FIMMI Obs” value ([10]; Table 48, 45 gai/ha alone) was 95%.
